Assay results as given in the supplement of paper PMC10307832.

Assays:
Experiment in all cases: relative viability (nuclei count vs DMSO), 5 days (fraction); higher = more cells survive
Pictilisib + AZD7762 = compound: CS(=O)(=O)N1CCN(Cc2cc3nc(-c4cccc5[nH]ncc45)nc(N4CCOCC4)c3s2)CC1 [Pictilisib] + NC(=O)Nc1cc(-c2cccc(F)c2)sc1C(=O)N[C@H]1CCCNC1 [AZD7762] (partner 0.2 µM)
In short: (§1)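 The day after seeding in 1536-well plates, lung cancer cell lines were treated by pin tool with a single drug, or with a fixed anchor-drug dose together with five library-drug doses (not always all listed) in √10 steps. After 5 days, a combined fix-and-stain solution (final 0.05% Triton X-100, 1% formaldehyde, 1 ug/ml Hoechst) was added. Nuclei counted on 4× images gave relative viability as treated counts over vehicle counts, reported as the median of duplicate plates.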

Pictilisib + Foretinib = compound: CS(=O)(=O)N1CCN(Cc2cc3nc(-c4cccc5[nH]ncc45)nc(N4CCOCC4)c3s2)CC1 [Pictilisib] + COc1cc2c(Oc3ccc(NC(=O)C4(C(=O)Nc5ccc(F)cc5)CC4)cc3F)ccnc2cc1OCCCN1CCOCC1 [Foretinib] (partner 0.25 µM)
In short: as §1

MK-2206 + Pictilisib = compound: NC1(c2ccc(-c3nc4ccn5c(=O)[nH]nc5c4cc3-c3ccccc3)cc2)CCC1 [MK-2206] + CS(=O)(=O)N1CCN(Cc2cc3nc(-c4cccc5[nH]ncc45)nc(N4CCOCC4)c3s2)CC1 [Pictilisib] (partner 1 µM)
In short: as §1

MK-2206 + Phenformin = compound: NC1(c2ccc(-c3nc4ccn5c(=O)[nH]nc5c4cc3-c3ccccc3)cc2)CCC1 [MK-2206] + N=C(N)NC(=N)NCCc1ccccc1 [Phenformin] (partner 250 µM)
In short: as §1

NCI-H2405
relative viability (Pictilisib + AZD7762; first compound 0.02 µM): 0.784 | relative viability (Pictilisib + AZD7762; first compound 0.06325 µM): 0.629 | relative viability (Pictilisib + AZD7762; first compound 0.6325 µM): 0.427 | relative viability (Pictilisib + AZD7762; first compound 2 µM): 0.264 | relative viability (Pictilisib + Foretinib; first compound 0.02 µM): 1.01 | relative viability (Pictilisib + Foretinib; first compound 0.06325 µM): 0.965 | relative viability (Pictilisib + Foretinib; first compound 0.6325 µM): 0.847 | relative viability (Pictilisib + Foretinib; first compound 2 µM): 0.562 | relative viability (MK-2206 + Pictilisib; first compound 0.01 µM): 0.418 | relative viability (MK-2206 + Pictilisib; first compound 0.03162 µM): 0.421 | relative viability (MK-2206 + Pictilisib; first compound 0.3162 µM): 0.361 | relative viability (MK-2206 + Pictilisib; first compound 1 µM): 0.282 | relative viability (MK-2206 + Phenformin; first compound 0.01 µM): 0.392 | relative viability (MK-2206 + Phenformin; first compound 0.03162 µM): 0.402 | relative viability (MK-2206 + Phenformin; first compound 0.3162 µM): 0.36 | relative viability (MK-2206 + Phenformin; first compound 1 µM): 0.321

NCI-H3122
relative viability (Pictilisib + AZD7762; first compound 0.02 µM): 0.961 | relative viability (Pictilisib + AZD7762; first compound 0.06325 µM): 1.07 | relative viability (Pictilisib + AZD7762; first compound 0.6325 µM): 0.871 | relative viability (Pictilisib + AZD7762; first compound 2 µM): 0.348 | relative viability (Pictilisib + Foretinib; first compound 0.02 µM): 0.998 | relative viability (Pictilisib + Foretinib; first compound 0.06325 µM): 0.997 | relative viability (Pictilisib + Foretinib; first compound 0.6325 µM): 0.973 | relative viability (Pictilisib + Foretinib; first compound 2 µM): 0.785 | relative viability (MK-2206 + Pictilisib; first compound 0.01 µM): 0.542 | relative viability (MK-2206 + Pictilisib; first compound 0.03162 µM): 0.558 | relative viability (MK-2206 + Pictilisib; first compound 0.3162 µM): 0.491 | relative viability (MK-2206 + Pictilisib; first compound 1 µM): 0.434 | relative viability (MK-2206 + Phenformin; first compound 0.01 µM): 0.367 | relative viability (MK-2206 + Phenformin; first compound 0.03162 µM): 0.414 | relative viability (MK-2206 + Phenformin; first compound 0.3162 µM): 0.395 | relative viability (MK-2206 + Phenformin; first compound 1 µM): 0.353

PC-3 [JPC-3]
relative viability (Pictilisib + AZD7762; first compound 0.02 µM): 0.812 | relative viability (Pictilisib + AZD7762; first compound 0.06325 µM): 0.844 | relative viability (Pictilisib + AZD7762; first compound 0.6325 µM): 0.491 | relative viability (Pictilisib + AZD7762; first compound 2 µM): 0.324 | relative viability (Pictilisib + Foretinib; first compound 0.02 µM): 1.01 | relative viability (Pictilisib + Foretinib; first compound 0.06325 µM): 1.09 | relative viability (Pictilisib + Foretinib; first compound 0.6325 µM): 0.931 | relative viability (Pictilisib + Foretinib; first compound 2 µM): 0.827 | relative viability (MK-2206 + Pictilisib; first compound 0.01 µM): 0.774 | relative viability (MK-2206 + Pictilisib; first compound 0.03162 µM): 0.874 | relative viability (MK-2206 + Pictilisib; first compound 0.3162 µM): 0.776 | relative viability (MK-2206 + Pictilisib; first compound 1 µM): 0.676 | relative viability (MK-2206 + Phenformin; first compound 0.01 µM): 0.48 | relative viability (MK-2206 + Phenformin; first compound 0.03162 µM): 0.486 | relative viability (MK-2206 + Phenformin; first compound 0.3162 µM): 0.475 | relative viability (MK-2206 + Phenformin; first compound 1 µM): 0.466

PC-14
relative viability (Pictilisib + AZD7762; first compound 0.02 µM): 0.399 | relative viability (Pictilisib + AZD7762; first compound 0.06325 µM): 0.366 | relative viability (Pictilisib + AZD7762; first compound 0.6325 µM): 0.246 | relative viability (Pictilisib + AZD7762; first compound 2 µM): 0.155 | relative viability (Pictilisib + Foretinib; first compound 0.02 µM): 1.04 | relative viability (Pictilisib + Foretinib; first compound 0.06325 µM): 0.976 | relative viability (Pictilisib + Foretinib; first compound 0.6325 µM): 0.953 | relative viability (Pictilisib + Foretinib; first compound 2 µM): 0.805 | relative viability (MK-2206 + Pictilisib; first compound 0.01 µM): 0.635 | relative viability (MK-2206 + Pictilisib; first compound 0.03162 µM): 0.627 | relative viability (MK-2206 + Pictilisib; first compound 0.3162 µM): 0.648 | relative viability (MK-2206 + Pictilisib; first compound 1 µM): 0.514 | relative viability (MK-2206 + Phenformin; first compound 0.01 µM): 0.493 | relative viability (MK-2206 + Phenformin; first compound 0.03162 µM): 0.663 | relative viability (MK-2206 + Phenformin; first compound 0.3162 µM): 0.584 | relative viability (MK-2206 + Phenformin; first compound 1 µM): 0.525

RERF-LC-KJ
relative viability (Pictilisib + AZD7762; first compound 0.02 µM): 0.999 | relative viability (Pictilisib + AZD7762; first compound 0.06325 µM): 0.916 | relative viability (Pictilisib + AZD7762; first compound 0.6325 µM): 0.855 | relative viability (Pictilisib + AZD7762; first compound 2 µM): 0.55 | relative viability (Pictilisib + Foretinib; first compound 0.02 µM): 0.879 | relative viability (Pictilisib + Foretinib; first compound 0.06325 µM): 0.847 | relative viability (Pictilisib + Foretinib; first compound 0.6325 µM): 0.709 | relative viability (Pictilisib + Foretinib; first compound 2 µM): 0.627 | relative viability (MK-2206 + Pictilisib; first compound 0.01 µM): 0.586 | relative viability (MK-2206 + Pictilisib; first compound 0.03162 µM): 0.481 | relative viability (MK-2206 + Pictilisib; first compound 0.3162 µM): 0.553 | relative viability (MK-2206 + Pictilisib; first compound 1 µM): 0.445 | relative viability (MK-2206 + Phenformin; first compound 0.01 µM): 0.413 | relative viability (MK-2206 + Phenformin; first compound 0.03162 µM): 0.423 | relative viability (MK-2206 + Phenformin; first compound 0.3162 µM): 0.408 | relative viability (MK-2206 + Phenformin; first compound 1 µM): 0.333
